# Tests used:
# NFκB = NFκB reporter assay, TNFα stimulation of A549 reporter cells; type: cell-based; settings: Homo sapiens; A549 NFκB-NanoLuciferase reporter cells, 4 ng/ml TNFα, 6 hours
# Description: Compounds of the present invention have been tested for their capacity to inhibit NFκB.
# The NFκB reporter construct was made by cloning 5 NFκB responsive elements upstream of a NanoLuciferase reporter gene flanked by AAVS1 genomic sequences.
# NFκB Responsive element fused with NanoLuciferase and SV40 late Poly(A) signal was amplified from pNL3.2-NFκB-Nluc (Promega) using NFκB-NLUC-F and NFκB-NLUC-R primers and inserted by Infusion (TaKaRa) in AAVS1 SA-2A-puro-pA donor plasmid (Hockemeyer et al, Nat Biotechnol. 2009, 27, 851-7) digested by Sall. pCRISPR AAVS1-T2 expressing a guide RNA (gRNA) to target human AAVS1 (T2 target sequence) was constructed by inserting AAVS1-T2A hybridized primers in pLentiCRISPR v2-blast (Sanjana et al, Nat Methods. 2014, 11, 783-4) digested by Bsmb1.
# A549 cells were transfected by the plasmids and puromycine selected for 5 days (1 μg mL-1). Then clones were obtained by limiting dilution and selected to maximize TNFα dependent NFkB-NanoLuciferase induction.
# The reporter cells were seeded on a 96-well plate for overnight with DMEM including 10% FBS. Test compounds were added at varying concentrations. The cells then were treated with 4 ng/ml TNFα (Peprotech, ref E251) in DMEM+10% FBS. NanoGlo luciferase assay (Promega) was carried out 6 hours later. Luminescence was measured using a Spark 20M spectrofluorimeter (Tecan). Values were normalized to the luminescence measured in untreated cells.
# [1] = tested on: H1N1 (influenza A/New Caledonia/20/99); assay: Antiviral effect on A549 cells infected with H1N1; type: cell-based, H1N1 A/New Caledonia/20/99 virus; settings: Influenza A virus, MOI 0.1, 48 h post-infection, MUNANA neuraminidase readout
# In short: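 A549 cells dosed with test compounds over a concentration range and infected at once with clinical isolate H1N1 A/New Caledonia/20/99 (MOI 0.1) in DMEM with […] TPCK trypsin, 37 °C. At 48 h, supernatant neuraminidase activity measured with MUNANA substrate (1 h, 37 °C); 4-MU fluorescence at ex 365/em 450 nm.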
# [2] = target: T1, CISD3 Gene Product (Miner2) (Homo sapiens, UniProt P0C7P0); assay: Stability of Fe-S cluster binding of purified NEET protein (absorbance 458 nm); type: biochemical
# T1 sequence (P0C7P0 15-127): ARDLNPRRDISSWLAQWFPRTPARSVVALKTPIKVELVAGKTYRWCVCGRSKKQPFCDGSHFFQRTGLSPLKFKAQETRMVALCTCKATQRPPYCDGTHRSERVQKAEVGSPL
# Procedure: (§1) The modulator effect on the NEET proteins encoded by human CISD1, CISD2, and CISD3 genes by the compounds of the invention has been tested and is reported below. Particularly, the biochemical function of the NEET proteins is measured by the stability of Fe—S cluster binding of the purified NEET proteins.
# (§2) The Fe—S cluster binding capacity of NEET proteins is known to be coordinated by four amino-acids in a stretch of 16 (three Cysteine and one Histidine). As the lability of the Fe—S cluster of NEET proteins is sensitive to the environment, cluster stability measurements are one of the measures of interactions of NEET proteins with small molecules and compounds. NEET protein/2Fe-2S cluster stability can be assessed by monitoring the decay in absorbance of its characteristic 458-nm peak (characteristic of the oxidized 2Fe-2S cluster) over time. Each NEET protein (mitoNEET, NAF-1 and Miner 2) was tested for its Fe—S binding in the absence or presence of a compound according to the invention (see table 3 below). The rate of cluster release (time in minutes to achieve 50% loss of bound Fe—S cluster) was compared for each NEET protein in the presence of one of the compounds of the invention (in a 1:3 protein:compound molar ratio) relative to each protein alone.
# (§3) At pH 6, all the three NEET proteins (mitoNEET, NAF-1 and Miner 2) have a characteristic rate of loss of the bound Fe—S cluster that can be measured by the decrease of absorbance at wavelength 458 nm over time, using a spectrophotometer. Thus, Bis-Tris buffer (100 mM Bis-Tris pH6, 100 mM Nacl) was used at pH 6 to dilute either DMSO (Blank sample: Bis-Tris Buffer pH 6, 66 μM DMSO), DMSO and one of the three NEET proteins (Control sample: Bis-Tris Buffer pH 6, 66 μM DMSO, 20 μM purified NEET protein) or DMSO, one of the three NEET proteins and a compound of the invention (Test sample: Bis-Tris Buffer pH 6, 66 μM DMSO, 20 μM purified NEET protein, 60 μM compound of the invention).
# (§4) A reaction mix containing DMSO diluted in the Bis-Tris Buffer with or without a compound of the invention was prepared. The purified NEET protein was the last component added to the reaction mix which was then aliquoted into 4 replicates in 96 wells plates. The absorbance at wavelength 458 nm was taken at 5 minutes intervals at 37° C. with a spectrofluorimeter. The assay run time for CISD2 gene product (NAF-1) was 500 minutes and 180 minutes for both the CISD 1 gene product (mitoNEET) and the CISD3 gene product (Miner 2).
# (§5) In addition to time monitoring, residual bound Fe—S cluster to NEET protein was measured at the final point of the spectrometry assay for each Test sample and compared to the Control sample data (in parenthesis table 3). This residual binding is measured by the differential percentage between the absorbance 458 nm at time zero and the absorbance 458 nm at the end of the experiment (i.e. respectively 500 or 180 minutes as described hereabove), showing the percentage of NEET protein still able to bind Fe—S cluster.
# (§6) Analysis of the absorbance enables the time for which 50% loss of bound Fe—S cluster is reached (i.e. a 50% absorbance decrease at 458 nm) for each Test sample and each Control sample (in parenthesis table 3) to be determined. The data are then compared to determine whether the compound of the invention stabilizes or destabilizes the NEET protein/Fe—S cluster binding.
# (§7) Stabilisers of Fe—S cluster binding by the NEET proteins slow the release of bound Fe—S (i.e. increase the time needed to reach 50% Fe—S cluster bound loss by more than 25% for the Test sample compared to the Control sample). As illustrated by table 3, at the concentrations tested, stabilisers of CISD1 Gene Product (mitoNEET) are the compounds #9, #18, #26, #2, #1, and #42. Stabilisers of CISD2 Gene Product (NAF-1) are the compounds #2, #1, and #40. Stabilisers of CISD3 Gene Product (Miner2) are the compounds #9, #18, #26, #2, #1, and #42.
# [3] = target: T2, CISD1 Gene Product (mitoNEET) (Homo sapiens, UniProt Q9NZ45); assay: as above; type: biochemical
# T2 sequence (Q9NZ45 33-108 limits assumed): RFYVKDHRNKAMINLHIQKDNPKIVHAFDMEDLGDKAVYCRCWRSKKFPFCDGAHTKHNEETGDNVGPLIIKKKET
# Procedure: as §1, §2, §3, §4, §5, §6, §7
# [4] = target: T3, CISD2 Gene Product (NAF-1) (Homo sapiens, UniProt Q8N5K1); assay: as above; type: biochemical; settings: 60 μM compound
# T3 sequence (Q8N5K1 57-135 limits assumed): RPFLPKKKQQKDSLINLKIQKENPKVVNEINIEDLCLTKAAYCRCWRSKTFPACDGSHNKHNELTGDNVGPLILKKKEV
# Procedure: as §1, §2, §3, §4, §5, §6, §7
structure (smiles),measurement,setting,value
"O=C(Nc1sc(Cl)c(C2CCCC2)c1C(=O)O)c1ccccc1 [Compound #18, 2-Benzamido-5-chloro-4-cyclopentyl-thiophene-3-carboxylic acid]",EC50,NFκB,1100 nM
same,IC50,[1],64.8 nM
same,Residual cluster bound at end of experiment (Percentage Absorbance 458 nm at time zero),"[2]; CISD3 gene product, at 180 minutes, 60 μM compound, vehicle control (DMSO) 11%",69% (11%)
same,Stabiliser of Fe—S cluster binding (time to 50% loss increased by more than 25% vs control),"[2]; Miner2, at the concentrations tested",Stabilisers
same,Time (in minutes) to achieve 50% loss of bound cluster (Absorbance 458 nm),"[2]; Miner2, pH 6, 37° C., 20 μM protein, 60 μM compound, run time 180 minutes, vehicle control 60",during 180 minutes
same,Residual cluster bound at end of experiment (Percentage Absorbance 458 nm at time zero),"[3]; at 180 minutes, 60 μM compound, vehicle control 16%",52% (16%)
same,Stabiliser of Fe—S cluster binding (time to 50% loss increased by more than 25% vs control),[3]; at the concentrations tested,stabilisers
same,Time (in minutes) to achieve 50% loss of bound cluster (Absorbance 458 nm),"[3]; pH 6, 37° C., 20 μM protein, 60 μM compound, run time 180 minutes, vehicle control 80",during 180 minutes
same,Residual cluster bound at end of experiment (Percentage Absorbance 458 nm at time zero),"[4]; at 500 minutes, vehicle control 3%",38% (3%)
same,Time (in minutes) to achieve 50% loss of bound cluster (Absorbance 458 nm),"[4]; pH 6, 37° C., 20 μM protein, run time 500 minutes, vehicle control 310",240 (310) minutes
